Test results reported in patent US20150315218A1, “SALTS OF PRODRUGS OF PIPERAZINE AND SUBSTITUTED PIPERIDINE ANTIVIRAL AGENTS” (Bristol-Myers Squibb Company, priority 2004, published 2015).
≈ marks a conversion by molar mass, not a printed value. Like-named read-outs stand apart in the source and are kept apart here. Blank lines part the entries; values can stand above or below the compound they belong to.

What was measured:
[1] = IV and oral rat PK (MAP) studies A, B, C of phosphate prodrugs and parent studies A1, B1, C1; type: in vivo, Sprague-Dawley rats; settings: for In vivo conversion in Rats-iv (note 2) MAP study: dose equiv. to 1 mg/Kg of the parent; for In vivo conversion in Rats-iv (note 2) MAP study / In vivo conversion in Rats-oral (note 2) MAP study: full wording: Rapid generation of parent in plasma; for clearance / Vd / half-life: male, Sprague-Dawley, rat, 1 mg/kg; for clearance / Vd / half-life / AUC 0-24 h (μM * hr) / Cmax (uM) / Cp @ 24 hr p.o. (nM): rats; for clearance / Vd: prodrug IV equivalent to 1 mpk of parent; for clearance: read-out: CL i.v.; for Vd: read-out: Vss i.v.; for half-life: after IV prodrug dosing equivalent to 1 mpk of parent, read-out: T1/2 i.v. (converted); for half-life / AUC 0-24 h (μM * hr) / Cmax (uM) / Cp @ 24 hr p.o. (nM): analyte = label; for In vivo conversion in Rats-oral (note 2) MAP study: dose equiv. to 5 mg/Kg of the parent; for AUC 0-24 h (μM * hr) / Cmax (uM) / Cp @ 24 hr p.o. (nM): after PO prodrug dosing equivalent to 5 mpk of parent
Experimental: The rats for oral dosing studies were fasted overnight. […] The dosing solutions of all three prodrugs for both IV and oral administration were prepared in 100% normal saline at 1 mg/mL (dosing solution concentrations were parent compound equivalent). Plasma samples were collected in EDTA vacutainers over 24 hrs, and analyzed by LC/MS/MS for both the prodrugs and parent molecules. Pharmacokinetic analysis was performed on Kinetica™.
Plasma and tissue samples were collected and stored at −20° C. until analysis. […] Rats were fasted overnight in PO studies. […] In the PO studies, rats (n=3) received PO doses of 5 and 100 mg/kg.
Male Sprague-Dawley rats (300-350 g, Hilltop Lab Animals, Inc., Scottdale, Pa.) with cannulas implanted in the jugular vein and/or bile duct were used. The rats were fasted overnight in the PO pharmacokinetic studies. Blood samples of 0.3 ml were collected from the jugular vein in EDTA-containing microtainer tubes (Becton Dickinson, Franklin Lakes, N.J.), and centrifuged to separate plasma.

[2] = molecular target: T1, alkaline phosphatase (human placenta, Sigma) (Homo sapiens, UniProt P05187); assay: In vitro conversion in alkaline phosphatase (Table 1, note 1); type: in vitro ADME; settings: ~0.2 mM prodrug, ~1.4 unit ALP, pH 8 Tris buffer; full wording: Complete and rapid conversion to parent without any intermediate formation
T1 construct: Qualitative in vitro studies using human placental alkaline phosphatase; purchased Sigma; host or cells: human placenta (as the result head says)

physchem = settings: pH 6.5, aqueous buffer
[3] = Oral dosing studies of prodrugs Ie and If in rats (Table 47); type: in vivo, rat; settings: for parent molecule in plasma following PO dosing of prodrug: rats, oral dosing of prodrug Ie or If
Experimental: Prodrug Ie was dosed orally to rats using methodology similar to that described above for the other prodrugs. […] Prodrug If was dosed orally to rats using methodology similar to that described above for the other prodrugs.

[4] = tested on: HIV-1 T-tropic strain LAI; assay: Antiviral assay: HIV-1 LAI infection of MT-2 cells, reverse transcriptase readout (EC50, Table 48); type: cell-based; settings: Human immunodeficiency virus 1, MT2, read-out: EC50-LAI
From the text: The materials and experimental procedures used to assess the anti-HIV activity of the parent compounds which are generated from the prodrugs in vivo are described below:
• The human T cell line MT-2 and PM1 (AIDS Research and Reference Reagent Program, National Institutes of Health) were maintained and propagated in Medium RPMI-1640 (Invitrogen, Carlsbad, Calif.), containing 10% fetal Bovine serum. (FBS, Sigma, St. Louis, Mo.).
• Laboratory strains of HIV-1—the T-tropic strain LAI was obtained through the AIDS Research and Reference Reagent Program, National Institutes of Health. It was amplified in MT-2 cells and titered using a virus yield assay (2). Detection was achieved through use of a reverse transcriptase assay (3), adapted for use with a Scintillation Proximity detection protocol (1) (Amersham Biosciences, Piscataway, N.J.).
• 1. Compounds stocks were prepared by dissolving in DMSO to 30 mM. For dilution plates, compounds were serially diluted 3-fold into DMSO, using 96-well polypropylene plates, so that the concentrations were 100-fold greater than the final assay concentration. For antiviral and cytotoxicity assays, 2 μl was added per well (1% final DMSO concentration). • 2. Compounds were added from dilution plates to 96 well tissue culture plates, containing 100 μl Medium RPMI-1640, containing 10% fetal bovine serum at a concentration of <20 μM. • 3. For antiviral assays, cells were infected at a multiplicity of infection of 0.005. After 1 h at 37° C., infected cells were diluted to 200,000 cells per ml in Medium RPMI-1640, containing 10% fetal bovine serum. 100 μl of this solution was added per well, giving a final volume of 200 μl. • 4. Plates were incubated at 37° C. in a humidified CO2 incubator and harvested after 5 days. • 5. Viral infections were monitored by measuring reverse transcriptase activity in the supernatants of infected wells as described above. The percent inhibition for each compound was calculated by quantifying the readout level in cells infected in the presence of each compound as a percentage of that observed for cells infected in the absence of compound and subtracting such a determined value from 100. • 6. An EC50 provides a method for comparing the antiviral potency of the compounds of this invention. The effective concentration for fifty percent inhibition (EC50) was calculated with the Microsoft Excel Xlfit curve fitting software. For each compound, curves were generated from percent inhibition calculated at 8 different concentrations by using a four paramenter logistic model (model 205).

[5] = Cytotoxicity assay (XTT dye reduction) in MT-2 cells; type: cell-based; settings: human, six days
[6] = 2-week oral dose rat toxicology / TK study F; type: in vivo; settings: for AUC(0-t): Sprague-Dawley, rat, plasma, oral, dosages 200 mg/kg/day, read-out: AUC0-24 h on Day 14
Experimental: In the 2-week oral rat study F (n=six/sex/group), Compound IVe was administered at daily doses of 15, 75, or 200 mg/kg. […] On Day 14, AUC0-24 h values were slightly higher in females (≦644 μg*hr/ml) compared to males (526.88 μg*hr/ml) at dosages 200 mg/kg/day. The oral (PO) results from Study F are in Table 5.

T1 sequence (P05187 23-506 limits assumed): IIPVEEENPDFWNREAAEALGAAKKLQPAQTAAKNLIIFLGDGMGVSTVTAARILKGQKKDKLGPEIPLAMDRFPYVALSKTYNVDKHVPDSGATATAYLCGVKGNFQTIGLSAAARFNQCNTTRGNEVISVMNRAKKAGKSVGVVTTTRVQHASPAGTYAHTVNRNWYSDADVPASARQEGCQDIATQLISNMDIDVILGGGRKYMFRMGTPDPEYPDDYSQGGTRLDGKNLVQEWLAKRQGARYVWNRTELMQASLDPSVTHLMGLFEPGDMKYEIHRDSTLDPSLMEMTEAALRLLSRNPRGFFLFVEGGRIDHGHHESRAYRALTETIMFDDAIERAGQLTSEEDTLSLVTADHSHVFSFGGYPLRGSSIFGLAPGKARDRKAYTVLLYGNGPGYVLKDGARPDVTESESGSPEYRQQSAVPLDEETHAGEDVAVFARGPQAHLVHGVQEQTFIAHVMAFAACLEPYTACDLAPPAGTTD

In vivo conversion in Rats-iv (note 2) MAP study [1]: Rapid
clearance ([1]; plasma): 16 ± 0.95 mL/min/kg
Vd ([1]; plasma): 0.095 ± 0.001 L/kg
half-life ([1]; plasma, iv): 8.4 ± 1.2 min
In vivo conversion in Rats-oral (note 2) MAP study [1]: Rapid
AUC 0-24 h (μM * hr) [1]: LLQ
Cmax (uM) [1]: LLQ
Cp @ 24 hr p.o. (nM) [1]: LLQ
In vitro conversion in Alkaline phosphatase (note 1) [2]: Complete
solubility (physchem): > 18000 µg/mL
Compound: COc1cnc(OC)c2c1c(C(=O)C(=O)N1CCN(C(=O)c3ccccc3)CC1)cn2COP(=O)(O)O [Ia]

F (%) (calc on historical IV data for parent) ([3]; rat, diester prodrug IIe PO 7.0 mg/kg (IVe eq), PK of IVe only): 7.7%
Cp @ 24 hr p.o. ([3]; rat, diester prodrug IIe PO 7.0 mg/kg (IVe eq), PK of IVe only, 1/3 rats): 8.17 (1/3 rats) nM
Compound: COc1cnc(-n2cnc(C)n2)c2c1c(C(=O)C(=O)N1CCC(=C(C#N)c3ccccn3)CC1)cn2COP(=O)(OC(C)(C)C)OC(C)(C)C [IIe]

Compound: COc1cnc(-n2ccc(C)n2)c2[nH]cc(C(=O)C(=O)N3CCN(C(=O)c4ccccc4)[C@H](C)C3)c12 [IVd]
EC50 [4]: < 1000 nM
CC50 at 6 days [5]: > 10 µM

In vitro conversion in Alkaline phosphatase (note 1) [2]: Complete
solubility (physchem): 1000 µg/mL (≈ 1710 µM)
Compound: COc1cnc(-n2cnc(C)n2)c2c1c(C(=O)C(=O)N1CCN(C(=O)c3ccccc3)CC1)cn2COP(=O)(O)O [Ic]

Compound: O=C(C(=O)N1CCN(C(=O)c2ccccc2)CC1)c1cn(COP(=O)([O-])[O-])c2c(-n3ccnn3)ncc(F)c12.[Na+].[Na+] [Ib]
In vivo conversion in Rats-iv (note 2) MAP study [1]: Rapid
half-life ([1]; in vivo): 108 ± 72 min
clearance ([1]; in vivo): 46 ± 10 mL/min/kg
Vd ([1]; in vivo): 0.97 ± 0.47 L/kg
In vivo conversion in Rats-oral (note 2) MAP study [1]: Rapid
AUC 0-24 h (μM * hr) [1]: LLQ
Cmax (uM) [1]: LLQ
Cp @ 24 hr p.o. (nM) [1]: LLQ
In vitro conversion in Alkaline phosphatase (note 1) [2]: Complete
solubility (physchem): > 8000 µg/mL

parent molecule in plasma following PO dosing of prodrug [3]: detected in the plasma
Compound: O=C(C(=O)N1CCN(c2ncnc3ccccc23)CC1)c1c[nH]c2c(-n3ccnn3)ncc(F)c12 [IVf]

parent molecule in plasma following PO dosing of prodrug [3]: detected in the plasma
Compound: COc1cnc(-n2cnc(C)n2)c2[nH]cc(C(=O)C(=O)N3CCC(=C(C#N)c4ccccn4)CC3)c12 [IVe, 2-(1-(2-(4-methoxy-7-(3-methyl-1H-1,2,4-triazol-1-yl)-1H-pyrrolo[2,3-c]pyridin-3-yl)-2-oxoacetyl)piperidin-4-ylidene)-2-(pyridin-2-yl)acetonitrile]
AUC(0-t) ([6]; female, females): ≤ 644 µg·h/mL
AUC(0-t) ([6]; male, males): 527 µg·h/mL
autoinduction or accumulation ([6]; toxicokinetic evaluations on days 1 and 14): no evidence of autoinduction or accumulation
